Entries after “also recorded” stand apart in the source; their conditions may differ. Values belong to the compound of their own block, whether it stands above or below them.
Experiments:
[1] = biological target: PARP-1; design: method as in PMID 21948594, PMID 21336281; conditions: ChEMBL; cited from earlier work
[2] = biological target: S6K1 kinase; design: method as in PMID 24072592; conditions: cited from earlier work
[3] = biological target: PIM1 kinase; design: method as in PMID 23025350; conditions: cited from earlier work
[4] = biological target: T1, human DYRK1A kinase (Homo sapiens, UniProt Q13627); assay: Human DYRK1A kinase in vitro inhibition assay (Cerep, LANCE); assay type: biochemical
T1 construct: purchased Cerep (CRO that ran the assay) 2781 (781-dyrk1a)
Description: Evaluation of the effects of compounds on the activity of the human DYRK1a
[sequence]-amide (MBP) using a human recombinant enzyme and the
mixture is incubated for 30 min at room temperature. For control basal measurements,

[5] = biological target: T2, human CDC2/CDK1 (Homo sapiens, UniProt P06493); assay: Human CDK1 kinase in vitro inhibition assay (Cerep, LANCE); assay type: biochemical
T2 construct: purchased Cerep (CRO that ran the assay) 2875 (781-cdc2); host or cells: insect cells
T2 sequence (P06493 whole entry): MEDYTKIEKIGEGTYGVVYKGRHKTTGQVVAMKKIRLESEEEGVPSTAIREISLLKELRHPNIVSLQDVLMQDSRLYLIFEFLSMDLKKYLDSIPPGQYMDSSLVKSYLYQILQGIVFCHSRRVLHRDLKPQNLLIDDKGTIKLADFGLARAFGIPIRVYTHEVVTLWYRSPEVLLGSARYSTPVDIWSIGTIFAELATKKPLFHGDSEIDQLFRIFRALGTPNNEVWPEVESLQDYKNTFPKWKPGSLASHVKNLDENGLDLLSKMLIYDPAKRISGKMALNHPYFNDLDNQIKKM
T2 sequence (P14635 whole entry partner): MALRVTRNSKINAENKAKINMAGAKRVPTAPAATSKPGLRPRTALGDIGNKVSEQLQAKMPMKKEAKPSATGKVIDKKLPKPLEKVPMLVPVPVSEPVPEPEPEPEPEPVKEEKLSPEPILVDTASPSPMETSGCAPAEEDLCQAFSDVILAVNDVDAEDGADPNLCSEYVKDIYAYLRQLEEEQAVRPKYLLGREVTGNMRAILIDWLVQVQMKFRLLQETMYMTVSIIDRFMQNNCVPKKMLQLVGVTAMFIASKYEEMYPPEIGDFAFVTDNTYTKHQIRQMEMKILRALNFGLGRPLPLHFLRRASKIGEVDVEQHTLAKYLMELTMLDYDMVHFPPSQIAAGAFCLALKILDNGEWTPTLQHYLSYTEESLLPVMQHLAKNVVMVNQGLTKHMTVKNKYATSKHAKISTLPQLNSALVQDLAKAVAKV
Description: All details for the CDC2/CDK1 in vitro assay can be consulted in the Cerep
Catalogue available online under references 2875 (781-cdc2):
http://www.cerep.fr/cerep/users/pages/catalog/Affiche_CondExp_Test.asp?test=2875
CDC2/CDK1 quantified by measuring the phosphorylation of
the substrate Ulight-[sequence]-amide (MBP) using a human
recombinant enzyme expressed in insect cells and the LANCE® detection method.
The test compound, reference compound or water (control) are mixed with the enzyme (2.28 ng) in a buffer containing 40 mM Hepes/Tris(pH 7.4), 0.8 mM EGTA/Tris, 8 mM MgCl2, 1.6 mM DTT and 0.008% Tween 20. Thereafter, the reaction is initiated by adding 100 nM of the
substrate Ulight-[sequence]-amide (MBP) and 10 µM ATP, and the
mixture is incubated for 15 min at room temperature. […] After 60 more min, the fluorescence transfer is
The IC50 values (concentration causing a half-maximal inhibition of control specific activity) and Hill coefficients (nH) were determined by non-linear regression analysis of the inhibition curves generated with mean replicate values using Hill equation curve fitting (Y = D + [(A – D)/(1 + (C/C50)nH)], where Y = specific activity, D = minimum specific activity, A = maximum specific activity, C = compound concentration, C50 = IC50, and nH = slope factor).

[6] = test system: 16 protein kinases; assay: Focused in vitro kinase screening across the panel of 16 protein kinases; assay type: biochemical, human; conditions: panel of 16 kinases
Description: From these kinases, we selected the 11 that were available for screening at Cerep (www.cerep.fr). The selection included members of three different kinase groups distantly related by sequence (all having less than 20% sequence identity with PIM1), namely, CAMK (PIM2, STK17A), CMGC (DYRK1A, CDK9, HIPK2, CK2, and CDC7) and AGC (AKT3, PRKCG, PRKCI, and PKA). To this list, we added also two kinases belonging to the TK group that have been identified as biomarkers of PARP drug sensitivity and shared ligands with PIM1, namely, ABL and ALK. […] In the end, a total of 16 protein kinases were selected for a focused in vitro screening of PARP inhibitors.
(§1) Rucaparib, veliparib and olaparib were purchased from Selleckchem. Kinase in vitro assays were perfomed at Cerep (www.cerep.fr) by measuring the phosphorylation of appropriate peptide substrates by human recombinant enzymes and using FRET as a detection method (a detailed description of each kinase assay is available in online supplementary data).

[7] = test system: STAT3 phosphorilation; design: method as in PMID 22678161; conditions: at 5 µM; cited from earlier work
[8] = biological target: T3, human PIM1 kinase (Homo sapiens, UniProt P11309); assay: Human Pim1 kinase in vitro inhibition assay (Cerep, LANCE/FRET); assay type: biochemical; conditions: human recombinant enzyme, 30 µM ATP
T3 construct: purchased Cerep (CRO that ran the assay) 2919 (745-P1); host or cells: insect cells
T3 sequence (P11309 whole entry): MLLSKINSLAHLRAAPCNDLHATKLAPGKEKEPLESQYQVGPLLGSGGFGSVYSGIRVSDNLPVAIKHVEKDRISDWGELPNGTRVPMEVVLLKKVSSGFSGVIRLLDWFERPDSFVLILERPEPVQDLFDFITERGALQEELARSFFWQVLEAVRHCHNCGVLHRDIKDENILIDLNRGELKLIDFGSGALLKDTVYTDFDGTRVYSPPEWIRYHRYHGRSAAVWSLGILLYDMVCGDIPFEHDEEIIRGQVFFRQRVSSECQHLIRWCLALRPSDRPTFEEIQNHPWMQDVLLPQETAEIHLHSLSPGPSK
Description: Human Pim1 and Pim2 kinase in vitro inhibition assays
Evaluation of the effects of compounds on the activity of the human Pim1 and Pim2 kinases were quantified by measuring the phosphorylation of the substrate Ulight-
CREBtide ([sequence]) using either Pim1 or Pim2 human recombinant enzymes expressed in insect cells and the LANCE® detection method 18,19.
The test compound, reference compound or water (control) are mixed with either Pim1 (4.08 ng) or Pim2 (6.36 ng) enzymes in a buffer containing 40 mM Hepes/Tris (pH 7.4), 0.8 mM EGTA/Tris, 8 mM MgCl2, 1.6 mM DTT and 0.008% Tween 20.
Thereafter, the reaction is initiated by adding 25 nM of the substrate Ulight-CREBtide
([sequence]) and ATP (30 µM for Pim1 and 3 µM for Pim2), and the mixture is incubated for 60 min at room temperature. […] After 60 more min, the fluorescence transfer is measured at λex=337 nm, λem=620 nm and λem=665 nm using a microplate reader (Envision, Perkin Elmer).

[9] = biological target: T4, human CDK9 kinase (Homo sapiens, UniProt P50750); assay: Human CDK9 kinase in vitro inhibition assay (Cerep, LANCE); assay type: biochemical; conditions: human recombinant enzyme, 10 µM ATP
T4 construct: purchased Cerep (CRO that ran the assay) 2912 (781-cdk9); host or cells: Sf9 cells
T4 sequence (P50750 whole entry): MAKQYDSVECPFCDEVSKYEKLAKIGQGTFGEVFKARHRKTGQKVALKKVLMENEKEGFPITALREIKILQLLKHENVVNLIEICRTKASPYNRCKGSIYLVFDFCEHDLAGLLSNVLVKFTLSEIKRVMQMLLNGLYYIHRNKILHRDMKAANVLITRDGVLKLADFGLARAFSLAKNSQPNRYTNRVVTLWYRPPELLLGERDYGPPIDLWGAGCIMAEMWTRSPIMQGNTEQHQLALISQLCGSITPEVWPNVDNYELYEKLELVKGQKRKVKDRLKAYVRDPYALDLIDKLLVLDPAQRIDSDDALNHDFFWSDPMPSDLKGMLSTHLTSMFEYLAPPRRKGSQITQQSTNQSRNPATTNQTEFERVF
T4 sequence (O60563 whole entry partner): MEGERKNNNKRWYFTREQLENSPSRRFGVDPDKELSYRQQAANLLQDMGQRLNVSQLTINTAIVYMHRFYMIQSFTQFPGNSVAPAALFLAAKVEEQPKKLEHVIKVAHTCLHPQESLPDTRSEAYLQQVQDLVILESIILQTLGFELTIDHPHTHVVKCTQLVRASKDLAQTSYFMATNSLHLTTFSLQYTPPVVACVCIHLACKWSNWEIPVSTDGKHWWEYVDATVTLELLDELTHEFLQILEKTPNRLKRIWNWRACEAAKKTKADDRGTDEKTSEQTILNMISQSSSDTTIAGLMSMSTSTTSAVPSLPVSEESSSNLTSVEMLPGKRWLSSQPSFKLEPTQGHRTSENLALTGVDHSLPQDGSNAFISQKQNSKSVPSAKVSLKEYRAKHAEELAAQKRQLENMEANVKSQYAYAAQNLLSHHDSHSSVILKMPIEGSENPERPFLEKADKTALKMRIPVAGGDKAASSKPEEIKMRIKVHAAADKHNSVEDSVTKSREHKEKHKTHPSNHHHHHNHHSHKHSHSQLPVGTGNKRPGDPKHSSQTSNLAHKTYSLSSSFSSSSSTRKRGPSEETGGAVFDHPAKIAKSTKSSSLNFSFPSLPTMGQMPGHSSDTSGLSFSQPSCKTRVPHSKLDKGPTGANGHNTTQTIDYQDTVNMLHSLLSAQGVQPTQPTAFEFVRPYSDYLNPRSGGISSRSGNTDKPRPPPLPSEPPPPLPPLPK
Description: as §1
Human CDK9 kinase in vitro inhibition assay
All details for the CDK9 in vitro assay can be consulted in the Cerep Catalogue available online under references 2912 (781-cdk9): http://www.cerep.fr/cerep/users/pages/catalog/Affiche_CondExp_Test.asp?test=2912 Evaluation of the effects of compounds on the activity of the human CDK9 quantified by measuring the phosphorylation of the substrate Ulight- […]
mixture is incubated for 90 min at room temperature. […] After 60 more min, the fluorescence transfer is measured at λex=337 nm, λem=620 nm and λem=665 nm using a microplate reader (Envision, Perkin Elmer). The enzyme activity is determined by dividing the signal measured at λem=665 nm by that measured at λem=620 nm (ratio). The results are expressed as a percent inhibition of the control enzyme activity. The standard inhibitory reference compound is staurosporine, which is tested in each experiment at several concentrations to obtain an inhibition curve from which its IC50 value is calculated. […]

[10] = 50 mg single daily dose; cited from earlier work

Compound: O=C1CCCN1Cc1ccc2c(c1)[nH]c(=O)c1cccn12 [CHEMBL539474]
- Ki [1]: 0.698 µM

Compound: NC(=O)c1cccc2[nH]c(-c3ccc(O)cc3)nc12 [Nu1085]
- IC50 [2]: 0.56 µM

Compound: CN(C)CC(=O)Nc1ccc2[nH]c(=O)c3ccccc3c2c1 [PJ34]
- IC50 [3]: 3.7 µM

- inhibition of DYRK1A (in words) [4]: not inhibited
- inhibition of CDK1 (in words) [5]: not inhibited
Compound: O=C(c1cc(Cc2n[nH]c(=O)c3ccccc23)ccc1F)N1CCN(C(=O)C2CC2)CC1 [olaparib]
- affinity for the 16 protein kinases tested [6]: does not inhibit any; also recorded: no relevant affinities
- effect on STAT3 phosphorilation [7]: do not affect the phosphorilation state of STAT3

- IC50 [8]: 17 µM
- inhibition of DYRK1A (in words) [4]: not inhibited
- inhibition of CDK1 (in words) [5]: not inhibited
- IC50 [9]: 8.2 µM
Compound: C[C@]1(c2nc3c(C(N)=O)cccc3[nH]2)CCCN1 [veliparib]
- effect on STAT3 phosphorilation [7]: do not affect the phosphorilation state of STAT3
- highest peak plasma concentration [10]: around 1 µM
